# Results as given in US20230085307A1, “PYRIDAZINONE COMPOUND AND HERBICIDE” (NISSAN CHEMICAL CORPORATION, priority 2019, published 2023).
# Columns and labels:
# persian speedwell [1] = assay: Test Example 5: herbicidal effect by foliage application, plastic box (Table 20, symbol R); format: in vivo, Persian speedwell (Veronica persica); conditions: foliage application, 320 g/ha, three weeks after application
# Method in brief: (§1)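 Plants sown in sterilized diluvial soil and grown 14 days in a greenhouse at 25° C to 30° C, then sprayed on the foliage with the compound's emulsion diluted in water to a predetermined herbicide amount. Injury to weeds and crops scored three weeks after application on a visual rating scale.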
# barnyard grass [2] = assay: Test Example 4: herbicidal effect by soil treatment (Table 19, symbol H); format: in vivo, barnyard grass (Echinochloa crus-galli); conditions: amount of applied herbicide 320 g/ha
# Method in brief: (§2)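 Three weeks of greenhouse growth at 25° C. to 30° C. followed a uniform surface spray of water-diluted emulsion at a predetermined herbicide amount. Seeds had been sown beforehand under about 1.5 cm of sterilized diluvial soil. Grading followed criteria set out in an earlier test.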
# persian speedwell [3] = assay: Test Example 4: herbicidal effect by soil treatment (Table 19, symbol R); format: in vivo, Persian speedwell (Veronica persica); conditions: amount of applied herbicide 320 g/ha
# Method in brief: as §2
# oval-leafed pondweed = assay: Test Example 2: herbicidal activity, application during weed generation under submerged conditions (Table 17, symbol C); format: in vivo, oval-leafed pondweed (Monochoria vaginalis); conditions: AAH 320 g/ha; application during weed generation, submerged conditions
# Method in brief: (§3)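 Steps: fill Wagner pots with alluvial soil; add water to give 4 cm depth; sow the species mixed; grow under glass at 25–30° C.; at 1–2 leaves apply water-diluted emulsion formulation to the water surface at a fixed herbicide amount; score after 3 weeks.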
# wild oat [4] = assay: Test Example 5: herbicidal effect by foliage application, plastic box (Table 20, symbol I); format: in vivo, wild oat (Avena fatua); conditions: foliage application, 320 g/ha, three weeks after application
# Method in brief: as §1
# Chinese sprangletop = assay: Test Example 3: herbicidal effect by foliage application, Wagner pot (Table 18, symbol D); format: in vivo, chinese sprangletop (Leptochloa chinensis); conditions: 320 g/ha
# Method in brief: (§4)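 Plants were sown in alluvial soil held under 0.1–0.5 cm standing water and grown 14 days in a greenhouse at 25–30 °C. An emulsifiable formulation, water-diluted to the set dose, was then sprayed onto the foliage, and effects were scored three weeks later using previously defined criteria.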
# lambsquarters [5] = assay: Test Example 4: herbicidal effect by soil treatment (Table 19, symbol O); format: in vivo, lambsquarters (Chenopodium album); conditions: amount of applied herbicide 320 g/ha
# Method in brief: as §2
# wild oat [6] = assay: Test Example 4: herbicidal effect by soil treatment (Table 19, symbol I); format: in vivo, wild oat (Avena fatua); conditions: amount of applied herbicide 320 g/ha
# Method in brief: as §2
# Italian ryegrass [7] = assay: Test Example 5: herbicidal effect by foliage application, plastic box (Table 20, symbol K); format: in vivo, Italian ryegrass (Lolium multiflorum); conditions: foliage application, 320 g/ha, three weeks after application
# Method in brief: as §1
# redroot pigweed [8] = assay: Test Example 5: herbicidal effect by foliage application, plastic box (Table 20, symbol N); format: in vivo, redroot pigweed (Amaranthus retroflexus); conditions: foliage application, 320 g/ha, three weeks after application
# Method in brief: as §1
# southern crabgrass [9] = assay: Test Example 4: herbicidal effect by soil treatment (Table 19, symbol F); format: in vivo, southern crabgrass (Digitaria ciliaris); conditions: amount of applied herbicide 320 g/ha
# Method in brief: as §2
# chickweed [10] = assay: Test Example 5: herbicidal effect by foliage application, plastic box (Table 20, symbol P); format: in vivo, common chickweed (Stellaria media); conditions: foliage application, 320 g/ha, three weeks after application
# Method in brief: as §1
# velvetleaf [11] = assay: Test Example 4: herbicidal effect by soil treatment (Table 19, symbol M); format: in vivo, velvetleaf (Abutilon theophrasti); conditions: amount of applied herbicide 320 g/ha
# Method in brief: as §2
# rice flat sedge = assay: Test Example 3: herbicidal effect by foliage application, Wagner pot (Table 18, symbol E); format: in vivo, rice flat sedge (Cyperus iria); conditions: 320 g/ha
# Method in brief: as §4
# blackgrass = assay: Test Example 5: herbicidal effect by foliage application, plastic box (Table 20, symbol J); format: in vivo, blackgrass (Alopecurus myosuroides); conditions: foliage application, 320 g/ha, three weeks after application
# Method in brief: as §1
# southern crabgrass [12] = assay: Test Example 5: herbicidal effect by foliage application, plastic box (Table 20, symbol F); format: in vivo, southern crabgrass (Digitaria ciliaris); conditions: foliage application, 320 g/ha, three weeks after application
# Method in brief: as §1
# windgrass = assay: Test Example 5: herbicidal effect by foliage application, plastic box (Table 20, symbol L); format: in vivo, windgrass (Apera spica-venti); conditions: foliage application, 320 g/ha, three weeks after application
# Method in brief: as §1
# green foxtail [13] = assay: Test Example 5: herbicidal effect by foliage application, plastic box (Table 20, symbol G); format: in vivo, green foxtail (Setaria viridis); conditions: foliage application, 320 g/ha, three weeks after application
# Method in brief: as §1
# barnyard grass [14] = assay: Test Example 3: herbicidal effect by foliage application, Wagner pot (Table 18, symbol H); format: in vivo, barnyard grass (Echinochloa crus-galli); conditions: 320 g/ha
# Method in brief: as §4
# late watergrass = assay: Test Example 2: herbicidal activity, application during weed generation under submerged conditions (Table 17, symbol A); format: in vivo, late watergrass (Echinochloa oryzicola); conditions: AAH 320 g/ha; application during weed generation, submerged conditions
# Method in brief: as §3
# velvetleaf [15] = assay: Test Example 5: herbicidal effect by foliage application, plastic box (Table 20, symbol M); format: in vivo, velvetleaf (Abutilon theophrasti); conditions: foliage application, 320 g/ha, three weeks after application
# Method in brief: as §1
# Japanese bulrush = assay: Test Example 2: herbicidal activity, application during weed generation under submerged conditions (Table 17, symbol B); format: in vivo, Japanese bulrush (Schoenoplectus juncoides); conditions: AAH 320 g/ha; application during weed generation, submerged conditions
# Method in brief: as §3
# redroot pigweed [16] = assay: Test Example 4: herbicidal effect by soil treatment (Table 19, symbol N); format: in vivo, redroot pigweed (Amaranthus retroflexus); conditions: amount of applied herbicide 320 g/ha
# Method in brief: as §2
# green foxtail [17] = assay: Test Example 4: herbicidal effect by soil treatment (Table 19, symbol G); format: in vivo, green foxtail (Setaria viridis); conditions: amount of applied herbicide 320 g/ha
# Method in brief: as §2
# Italian ryegrass [18] = assay: Test Example 4: herbicidal effect by soil treatment (Table 19, symbol K); format: in vivo, Italian ryegrass (Lolium multiflorum); conditions: amount of applied herbicide 320 g/ha
# Method in brief: as §2
# barnyard grass [19] = assay: Test Example 5: herbicidal effect by foliage application, plastic box (Table 20, symbol H); format: in vivo, barnyard grass (Echinochloa crus-galli); conditions: foliage application, 320 g/ha, three weeks after application
# Method in brief: as §1
# chickweed [20] = assay: Test Example 4: herbicidal effect by soil treatment (Table 19, symbol P); format: in vivo, common chickweed (Stellaria media); conditions: amount of applied herbicide 320 g/ha
# Method in brief: as §2
# false cleavers [21] = assay: Test Example 4: herbicidal effect by soil treatment (Table 19, symbol Q); format: in vivo, false cleavers (Galium spurium); conditions: amount of applied herbicide 320 g/ha
# Method in brief: as §2
# false cleavers [22] = assay: Test Example 5: herbicidal effect by foliage application, plastic box (Table 20, symbol Q); format: in vivo, false cleavers (Galium spurium); conditions: foliage application, 320 g/ha, three weeks after application
# Method in brief: as §1
# lambsquarters [23] = assay: Test Example 5: herbicidal effect by foliage application, plastic box (Table 20, symbol O); format: in vivo, lambsquarters (Chenopodium album); conditions: foliage application, 320 g/ha, three weeks after application
# Method in brief: as §1
smiles,measurement,setting,value
Cc1nn(C)c(=O)c(-c2c(-c3ccc4c(c3)OCC4)sc3ccccc23)c1O [1-085],"herbicidal effect grade, R: persian speedwell",persian speedwell [1],5 (Herbicidal rate of 90% or more (almost completely withered))
same,"herbicidal effect rating, H: barnyard grass",barnyard grass [2],4 (Herbicidal rate of 70% or more and less than 90%)
same,"herbicidal effect rating, R: persian speedwell",persian speedwell [3],4 (Herbicidal rate of 70% or more and less than 90%)
same,"herbicidal effect rating, C: oval-leafed pondweed",oval-leafed pondweed,2 (Herbicidal rate of 20% or more and less than 40%)
same,"herbicidal effect grade, I: wild oat",wild oat [4],4 (Herbicidal rate of 70% or more and less than 90%)
same,"herbicidal effect on D (Chinese sprangletop), rating 0-5",Chinese sprangletop,4 (Herbicidal rate of 70% or more and less than 90%)
same,"herbicidal effect rating, O: lambsquarters",lambsquarters [5],5 (Herbicidal rate of 90% or more (almost completely withered))
same,"herbicidal effect rating, I: wild oat",wild oat [6],0 (Herbicidal rate of 5% or less (almost no effect))
same,"herbicidal effect grade, K: Italian ryegrass",Italian ryegrass [7],5 (Herbicidal rate of 90% or more (almost completely withered))
same,"herbicidal effect grade, N: redroot pigweed",redroot pigweed [8],5 (Herbicidal rate of 90% or more (almost completely withered))
same,"herbicidal effect rating, F: southern crabgrass",southern crabgrass [9],5 (Herbicidal rate of 90% or more (almost completely withered))
same,"herbicidal effect grade, P: chickweed",chickweed [10],5 (Herbicidal rate of 90% or more (almost completely withered))
same,"herbicidal effect rating, M: velvetleaf",velvetleaf [11],3 (Herbicidal rate of 40% or more and less than 70%)
same,"herbicidal effect on E (rice flat sedge), rating 0-5",rice flat sedge,5 (Herbicidal rate of 90% or more (almost completely withered))
same,"herbicidal effect grade, J: blackgrass",blackgrass,4 (Herbicidal rate of 70% or more and less than 90%)
same,"herbicidal effect grade, F: southern crabgrass",southern crabgrass [12],5 (Herbicidal rate of 90% or more (almost completely withered))
same,"herbicidal effect grade, L: windgrass",windgrass,5 (Herbicidal rate of 90% or more (almost completely withered))
same,"herbicidal effect grade, G: green foxtail",green foxtail [13],5 (Herbicidal rate of 90% or more (almost completely withered))
same,"herbicidal effect on H (barnyard grass), rating 0-5",barnyard grass [14],5 (Herbicidal rate of 90% or more (almost completely withered))
same,"herbicidal effect rating, A: late watergrass",late watergrass,1 (Herbicidal rate of 5% or more and less than 20%)
same,"herbicidal effect grade, M: velvetleaf",velvetleaf [15],5 (Herbicidal rate of 90% or more (almost completely withered))
same,"herbicidal effect rating, B: Japanese bulrush",Japanese bulrush,1 (Herbicidal rate of 5% or more and less than 20%)
same,"herbicidal effect rating, N: redroot pigweed",redroot pigweed [16],5 (Herbicidal rate of 90% or more (almost completely withered))
same,"herbicidal effect rating, G: green foxtail",green foxtail [17],4 (Herbicidal rate of 70% or more and less than 90%)
same,"herbicidal effect rating, K: Italian ryegrass",Italian ryegrass [18],5 (Herbicidal rate of 90% or more (almost completely withered))
same,"herbicidal effect grade, H: barnyard grass",barnyard grass [19],5 (Herbicidal rate of 90% or more (almost completely withered))
same,"herbicidal effect rating, P: chickweed",chickweed [20],4 (Herbicidal rate of 70% or more and less than 90%)
same,"herbicidal effect rating, Q: false cleavers",false cleavers [21],4 (Herbicidal rate of 70% or more and less than 90%)
same,"herbicidal effect grade, Q: false cleavers",false cleavers [22],5 (Herbicidal rate of 90% or more (almost completely withered))
same,"herbicidal effect grade, O: lambsquarters",lambsquarters [23],5 (Herbicidal rate of 90% or more (almost completely withered))
